In US9765039B2, “Biaryl derivatives as bromodomain inhibitors” (Zenith Epigenetics Ltd., priority 2012, dated 2017):

Experiments:
[1] = tested on: c-myc; experiment: Inhibition of c-myc expression in cancer cell lines (mRNA, real-time PCR); type: cell-based; parameters: key: Active: Compounds with an IC50 value less than 30 μM were deemed to be active; conditions: Human AML MV4-11 cells, 3 hours
Procedure, shortened: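 MV4-11 cells (2.5×10^4) exposed to compound or 0.1% DMSO for 3 h at 37° C, then lysed for mRNA isolation. c-myc and cyclophilin cDNAs co-amplified by duplex RT real-time PCR. IC50 from dose-response curve.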

[2] = tested on: Human AML MV-4-11 cells; experiment: Inhibition of cell proliferation in cancer cell lines (CellTiter Aqueous One); type: cell-based; parameters: key: Active: Compounds with an IC50 value less than 30 μM were deemed to be active.; Not Active: Compounds with an IC50 value less than 30 μM were deemed to be active; conditions: 72 hours
Procedure, shortened: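 Exponentially growing MV-4-11 cells were treated immediately with two-fold compound dilutions from 30 µM to 0.2 µM in triplicate for 72 h at 37 °C. Viability was read by MTS (CellTiter Aqueous One) absorbance at 490 nm after 3-4 h; % proliferation vs DMSO gave IC50.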

[3] = tested on: hApoA-1 mRNA; experiment: Up-regulation of hApoA-1 mRNA transcription in Huh7 cells; type: cell-based, human; parameters: key: Active: Compounds with an EC170 value less than 30 μM are deemed to be active.; Not Active: Compounds with an EC170 value less than 30 μM are deemed to be active; conditions: 48 hrs treatment, ApoA-I mRNA
Procedure, shortened: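 Huh7 cells plated 24 h before compound, then treated 48 h; mRNA isolated from lysates and ApoA-I quantified by one-step real-time PCR. Fold induction derived from Ct values relative to the matching DMSO control; EC170 reported as activity measure.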

[4] = tested on: hIL-6 mRNA; experiment: Inhibition of hIL-6 mRNA transcription in LPS-stimulated U937 macrophages; type: cell-based, human; parameters: key: Active: Compounds with an IC50 value less than 30 μM are deemed to be active; conditions: U937 differentiated into macrophages, 1 h pretreatment, lipopolysaccharide 3 h
Procedure, shortened: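 U937 cells differentiated 3 days with 60 ng/mL PMA, pretreated 1 h with compound, then stimulated with […] E. coli LPS for 3 h at 37° C. hIL-6 mRNA quantified by one-step real-time RT-PCR, Ct normalised to internal control and expressed as fold induction relative to control.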

c-myc activity (IC50 < 30 μM) [1]: Active
cell proliferation activity (IC50 < 30 μM) [2]: Active
IL-6 activity (IC50 < 30 μM) [4]: Active
SMILES: COc1cc(OC)c2c(=O)[nH]c(-c3ccc(OCCNC(C)C)c(-c4ccc([S+](C)[O-])cc4)n3)nc2c1 (stereo not shown) [Example 41, 2-(5-(2-(Isopropylamino)ethoxy)-6-(4-(methylsulfinyl)phenyl)pyridin-2-yl)-5,7-dimethoxyquinazolin-4(3H)-one]
ApoA-1 Activity (EC170 < 30 μM) [3]: Active
